## CCNC(=S)Nc1ccc2ncc(Nc3ccc(C)c(NS(C)(=O)=O)c3)nc2n1 [Compound 165, N-{5-[6-(3-Ethyl-thioureido)-pyrido[2,3-b]pyrazin-3-ylamino]-2-methyl-phenyl}-methanesulfonamide]
  melting point: 268 °C

## CCNC(=O)Nc1cnc2ccc(-c3cc(OC)c(OC)c(OC)c3)nc2n1 [Compound 23, 1-Ethyl-3-[6-(3,4,5-trimethoxy-phenyl)-pyrido[2,3-b]pyrazin-3-yl]-urea]
  melting point: > 230 °C

## O=C(Nc1cnc2ccc(-c3cc(Cl)c(O)c(Cl)c3)nc2n1)Nc1ccccc1[N+](=O)[O-] [Compound 561, 1-[6-(3,5-Dichloro-4-hydroxy-phenyl)-pyrido[2,3-b]pyrazin-3-yl]-3-(2-nitro-phenyl)-urea]
  melting point: > 300 °C

## CCNC(=O)Nc1ccc2ncc(-c3cccc(C)c3)nc2n1 [Compound 100, 1-Ethyl-3-(3-m-tolyl-pyrido[2,3-b]pyrazin-6-yl)-urea]
  melting point: 232 to 234 °C

## CCNC(=O)Nc1cnc2ccc(Nc3cnc4ccccc4c3)nc2n1 [Compound 32, 1-Ethyl-3-[6-(quinolin-3-ylamino)-pyrido[2,3-b]pyrazin-3-yl]-urea]
  melting point: 265 to 270 °C

## COc1ccc(-c2ccc3ncc(NC(=O)NC4CCCCC4)nc3n2)cc1OC [Compound 571, 1-Cyclohexyl-3-[6-(3,4-dimethoxy-phenyl)-pyrido[2,3-b]pyrazin-3-yl]-urea]
  melting point: 262 to 264 °C

## CCNC(=O)Nc1ccc2ncc(Nc3ccccc3)nc2n1 [Compound 64, 1-Ethyl-3-(3-phenylamino-pyrido-[2,3-b]pyrazin-6-yl)-urea]
  melting point: 229 to 231 °C

## C=CCNC(=O)Nc1cnc2ccc(-c3ccc(O)c(OC)c3)nc2n1 [Compound 18, 1-Allyl-3-[6-(4-hydroxy-3-methoxy-phenyl)-pyrido[2,3-b]pyrazin-3-yl]-urea]
  melting point: 211 to 213 °C

## CCNC(=S)Nc1ccc2ncc(Nc3ccc(O)c([N+](=O)[O-])c3)nc2n1 [Compound 491, 1-Ethyl-3-[3-(4-hydroxy-3-nitro-phenylamino)-pyrido[2,3-b]pyrazin-6-yl]-thiourea]
  melting point: 250 °C

## CCNC(=O)Nc1ccc2ncc(-c3cccc(Cl)c3F)nc2n1 [Compound 99, 1-[3-(3-Chloro-2-fluoro-phenyl)-pyrido[2,3-b]pyrazin-6-yl]-3-ethyl-urea]
  melting point: 275 °C

## COc1cc(Nc2cnc3ccc(NC(=S)NCc4ccc(F)cc4)nc3n2)cc(OC)c1OC [Compound 701, 1-(4-Fluoro-benzyl)-3-[3-(3,4,5-trimethoxy-phenylamino)-pyrido[2,3-b]pyrazin-6-yl]-thiourea]
  melting point: 255 °C

## CCNC(=O)Nc1ccc2ncc(-c3ccsc3)nc2n1 [Compound 141, 1-Ethyl-3-(3-thiophen-3-yl-pyrido[2,3-b]pyrazin-6-yl)-urea]
  melting point: 250 °C

## CCNC(=O)Nc1ccc2ncc(-c3ccc(OC)cc3C)nc2n1 [Compound 98, 1-Ethyl-3-[3-(4-methoxy-2-methyl-phenyl)-pyrido[2,3-b]pyrazin-6-yl]-urea]
  melting point: 223 to 225 °C

## CCNC(=S)Nc1ccc2ncc(Nc3ccc(F)c(F)c3)nc2n1 [Compound 433, 1-[3-(3,4-Difluoro-phenylamino)-pyrido[2,3-b]pyrazin-6-yl]-3-ethyl-thiourea]
  melting point: 265 °C

## CCNC(=O)Nc1ccc2ncc(-c3ccccc3SC)nc2n1 [Compound 135, 1-Ethyl-3-[3-(2-methylsulfanyl-phenyl)-pyrido[2,3-b]pyrazin-6-yl]-urea]
  melting point: 182 to 185 °C

## CCNC(=S)Nc1ccc2ncc(Nc3ccccc3O)nc2n1 [Compound 149, 1-Ethyl-3-[3-(2-hydroxy-phenylamino)-pyrido[2,3-b]pyrazin-6-yl]-thiourea]
  melting point: 280 °C

## CCNC(=O)Nc1ccc2ncc(-c3ccc([N+](=O)[O-])cc3)nc2n1 [Compound 131, 1-Ethyl-3-[3-(4-nitro-phenyl)-pyrido[2,3-b]pyrazin-6-yl]-urea]
  melting point: > 350 °C

## CCNC(=O)Nc1ccc2ncc(Nc3ccc(O)c(C)c3)nc2n1 [Compound 86, 1-Ethyl-3-[3-(4-hydroxy-3-methyl-phenylamino)-pyrido[2,3-b]pyrazin-6-yl]-urea]
  melting point: 277 to 280 °C

## COc1cc(Nc2cnc3ccc(NC(=S)Nc4c(C)noc4C)nc3n2)cc(OC)c1OC [Compound 695, 1-(3,5-Dimethyl-isoxazol-4-yl)-3-[3-(3,4,5-trimethoxy-phenylamino)-pyrido[2,3-b]pyrazin-6-yl]-thiourea]
  melting point: 247 °C

## CCNC(=S)Nc1ccc2ncc(Nc3ccc4ccccc4c3)nc2n1 [Compound 168, 1-Ethyl-3-[3-(naphthalen-2-ylamino)-pyrido[2,3-b]pyrazin-6-yl]-thiourea]
  melting point: 289 °C

## CCNC(=O)Nc1ccc2ncc(-c3cc(C)cc(Br)c3OCc3ccccc3)nc2n1 [Compound 109, 1-[3-(2-Benzyloxy-3-bromo-5-methyl-phenyl)-pyrido[2,3-b]pyrazin-6-yl]-3-ethyl-urea]
  melting point: 236 to 238 °C

## CCNC(=O)Nc1cnc2ccc(Nc3ccc(C)cc3)nc2n1 [Compound 1, 1-Ethyl-3-(6-p-tolylamino-pyrido[2,3-b]pyrazin-3-yl)-urea]
  melting point: 235 °C

## Cc1cc(-c2ccc3ncc(NC(=O)Nc4c(C)noc4C)nc3n2)cc(C)c1O [Compound 590, 1-(3,5-Dimethyl-isoxazol-4-yl)-3-[6-(4-hydroxy-3,5-dimethyl-phenyl)-pyrido[2,3-b]pyrazin-3-yl]-urea]
  melting point: 242 to 244 °C

## COc1ccc(-c2ccc3ncc(NC(=O)c4ccccc4)nc3n2)cc1OC [Compound 660, N-[6-(3,4-Dimethoxy-phenyl)-pyrido[2,3-b]pyrazin-3-yl]-benzamide]
  melting point: 168 to 170 °C

## CCNC(=O)Nc1ccc2ncc(-c3cc(Cl)cc(C)c3F)nc2n1 [Compound 96, 1-[3-(5-Chloro-2-fluoro-3-methyl-phenyl)-pyrido[2,3-b]pyrazin-6-yl]-3-ethyl-urea]
  melting point: 258 to 259 °C

## COc1cc(-c2ccc3ncc(NC(=O)NCCCc4ccccc4)nc3n2)ccc1O [Compound 629, 1-[6-(4-Hydroxy-3-methoxy-phenyl)-pyrido[2,3-b]pyrazin-3-yl]-3-(3-phenyl-propyl)-urea]
  melting point: 233 to 236 °C

## CCNC(=O)Nc1ccc2ncc(-c3cc(C)cc(Br)c3OC)nc2n1 [Compound 110, 1-[3-(3-Bromo-2-methoxy-5-methyl-phenyl)-pyrido[2,3-b]pyrazin-6-yl]-3-ethyl-urea]
  melting point: 228 to 230 °C

## CCCOc1ccc(-c2cnc3ccc(NC(=O)NCC)nc3n2)cc1 [Compound 133, 1-Ethyl-3-[3-(4-propoxy-phenyl)-pyrido[2,3-b]pyrazin-6-yl]-urea]
  melting point: 258.7 °C

## CCCNC(=O)Nc1cnc2ccc(-c3cc(Cl)c(O)c(Cl)c3)nc2n1 [Compound 551, 1-[6-(3,5-Dichloro-4-hydroxy-phenyl)-pyrido[2,3-b]pyrazin-3-yl]-3-propyl-urea]
  melting point: 265 to 268 °C

## CCNC(=O)Nc1ccc2ncc(-c3cnn(CCN4CCOCC4)c3)nc2n1 [Compound 60, 1-Ethyl-3-{3-[1-(2-morpholin-4-yl-ethyl)-1H-pyrazol-4-yl]-pyrido[2,3-b]pyrazin-6-yl}-urea]
  melting point: 223 to 226 °C

## CC(C)NC(=O)Nc1cnc2ccc(-c3cc(Cl)c(O)c(Cl)c3)nc2n1 [Compound 552, 1-[6-(3,5-Dichloro-4-hydroxy-phenyl)-pyrido[2,3-b]pyrazin-3-yl]-3-isopropyl-urea]
  melting point: 259 to 261 °C

## CCNC(=S)Nc1ccc2ncc(Nc3ccc(C(C)=O)cc3)nc2n1 [Compound 467, 1-[3-(4-Acetyl-phenylamino)-pyrido[2,3-b]pyrazin-6-yl]-3-ethyl-thiourea]
  melting point: 232 °C

## CCNC(=S)Nc1cnc2ccc(Nc3ccc(O)cc3)nc2n1 [Compound 198, 1-Ethyl-3-[6-(4-hydroxy-phenylamino)-pyrido[2,3-b]pyrazin-3-yl]-thiourea]
  melting point: 258 °C

## CCNC(=O)Nc1ccc2ncc(-c3cc(C(C)=O)ccc3F)nc2n1 [Compound 79, 1-[3-(5-Acetyl-2-fluoro-phenyl)-pyrido[2,3-b]pyrazin-6-yl]-3-ethyl-urea]
  melting point: 238.1 to 241.8 °C

## CCNC(=S)Nc1cnc2ccc(Nc3ccc(Cl)cc3)nc2n1 [Compound 217, 1-[6-(4-Chloro-phenylamino)-pyrido[2,3-b]pyrazin-3-yl]-3-ethyl-thiourea]
  melting point: 185 °C

## COc1cc(-c2ccc3ncc(NC(=O)Nc4cccc(-n5cccc5)c4)nc3n2)ccc1O [Compound 619, 1-[6-(4-Hydroxy-3-methoxy-phenyl)-pyrido[2,3-b]pyrazin-3-yl]-3-(3-pyrrol-1-yl-phenyl)-urea]
  melting point: 214 to 217 °C

## COc1cc(-c2ccc3ncc(NC(=O)Nc4ccc([N+](=O)[O-])cc4)nc3n2)ccc1O [Compound 616, 1-[6-(4-Hydroxy-3-methoxy-phenyl)-pyrido[2,3-b]pyrazin-3-yl]-3-(4-nitro-phenyl)-urea]
  melting point: 247 to 250 °C

## CCNC(=O)Nc1ccc2ncc(-c3ccc(OCCCN4CCOCC4)c(OC)c3)nc2n1 [Compound 63, 1-Ethyl-3-{3-[3-methoxy-4-(3-morpholin-4-yl-propoxy)-phenyl]-pyrido[2,3-b]pyrazin-6-yl}-urea]
  melting point: 225 to 227 °C

## CC(C)Oc1cccc(Nc2cnc3ccc(NC(=O)NC4CC4)nc3n2)c1 [Compound 49, 1-Cyclopropyl-3-[3-(3-isopropoxy-phenylamino)-pyrido[2,3-b]pyrazin-6-yl]-urea]
  melting point: 134 °C

## COc1cc(-c2ccc3ncc(NC(=O)Nc4ccc(-n5cccc5)cc4)nc3n2)ccc1O [Compound 623, 1-[6-(4-Hydroxy-3-methoxy-phenyl)-pyrido[2,3-b]pyrazin-3-yl]-3-(4-pyrrol-1-yl-phenyl)-urea]
  melting point: 263 to 265 °C

## COc1cc(-c2ccc3ncc(NC(=O)Nc4c(C)noc4C)nc3n2)ccc1O [Compound 27, 1-(3,5-Dimethyl-isoxazol-4-yl)-3-[6-(4-hydroxy-3-methoxy-phenyl)-pyrido[2,3-b]pyrazin-3-yl]-urea]
  melting point: 249 to 252 °C

## CCOC(=O)CCNC(=S)Nc1ccc2ncc(Nc3cc(OC)c(OC)c(OC)c3)nc2n1 [Compound 709, 3-{3-[3-(3,4,5-Trimethoxy-phenylamino)-pyrido[2,3-b]pyrazin-6-yl]-thioureido}-propionic acid ethyl ester]
  melting point: 244 °C
